{"source": "patent US7595345B2", "about": "“Vitamin D receptor modulators” (Eli Lilly and Company, priority 2003, dated 2009)", "key": {"[1]": {"assay": "Mouse hypercalcemia assay", "type": "in vivo", "conditions": "female DBF mice, oral gavage for 6 days, serum ionized calcium 6 hours after last dosing", "source_text": "4. The Mouse Hypercalcemia Assay\n(4) Materials and Method for the Mouse Hypercalcemia Assay: […]"}, "[2]": {"target": "T1, RXR-VDR heterodimer (Gal4-RXR-DEF and VP16-VDR-LBD) (Homo sapiens, UniProt P11473)", "T1 construct": "Add the Gal4-RXR-DEF and VP16-VDR-LBD; expressed in transfected cells; host or cells: SaOs-2 cells", "T1 sequence (P11473 127-423 limits assumed)": "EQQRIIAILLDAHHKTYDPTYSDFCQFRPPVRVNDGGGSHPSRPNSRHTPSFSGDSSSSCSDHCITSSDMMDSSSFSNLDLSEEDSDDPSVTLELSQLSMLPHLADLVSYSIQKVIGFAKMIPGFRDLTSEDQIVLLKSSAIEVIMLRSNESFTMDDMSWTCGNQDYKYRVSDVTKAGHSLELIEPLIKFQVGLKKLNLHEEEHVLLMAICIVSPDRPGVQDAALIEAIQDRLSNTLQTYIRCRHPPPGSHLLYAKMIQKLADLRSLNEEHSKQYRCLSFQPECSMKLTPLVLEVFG", "T1 sequence (P19793 201-462 partner limits assumed)": "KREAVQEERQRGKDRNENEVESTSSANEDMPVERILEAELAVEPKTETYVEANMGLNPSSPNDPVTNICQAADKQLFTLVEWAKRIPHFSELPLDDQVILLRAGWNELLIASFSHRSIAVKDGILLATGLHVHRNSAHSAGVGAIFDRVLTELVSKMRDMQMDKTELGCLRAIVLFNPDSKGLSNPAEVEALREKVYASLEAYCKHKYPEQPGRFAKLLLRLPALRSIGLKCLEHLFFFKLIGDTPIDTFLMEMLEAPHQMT", "assay": "RXR-VDR heterodimerization assay (SaOS-2 cells)", "type": "cell-based", "conditions": "luciferase reporter pFR-LUC", "source_text": "1. The RXR-VDR Heterodimer Assay:\nThis assay provides the VDR activity of a test compound.\nThis is an in vitro efficacy assay for psoriasis, abscess and adhesion. Psoriasis involves both keratinocytes and immune cells. IL-10 is a unique cytokine because it is anti-inflammatory and immunosuppressive. This assay tells us whether a VDRM is able to function as an agonist in PBMCs (primary blood mononuclear cells) or not. […] 7. Other Compound Assay Standards An alternative measure of the efficacy of compounds of the invention for treatment of osteoporosis is a numerical ratio calculated as follows: • Dose Threshold needed to induce hypercalcemia • divided by • Dose Threshold needed for bone efficacy An alternative measure of the efficacy of compounds of the invention for treatment of psoriasis is a numerical ratio calculated as follows: • Dose Threshold needed to induce hypercalcemia • divided by • Dose Threshold needed to induce keratinocyte proliferation For the above ratios, Dose Thresholds are determined from dose response curve data. 8. The CaT1 (Calcium Transport Protein 1) Assay The CaT1 Assay is an indicator for the undesirable condition of hypercalcemia. […] Preferred assay results are greater than 1000 nM. Details of the Assay Methods: (1) Materials and Method for RXR-VDR Heterodimerization Assay: Transfection Method:\nGrow SaOs-2 cells in T-152 cm^2 culture flasks in growth media.\nKeep the density at 5-6×10^5 cells/ml\nPassage cells 1:3 twice a week\nResuspend cells in plating media and transfer into growth media.\nTransfection/Treatment Media:\nD-MEM Low Glucose Without Phenol Red only\nT-152 cm^2 culture flask:\nUse well plate to plate cells\nUse Deep well plate sterile to make up treatment media.\nLuciferase Assay Reagent:\nUse Steady-Glo Luciferase Reagent from Promega (Cat #E2550) Consists of:\na. E2533 Assay Substrate, lyophilized product and\nAspirate media from culture flask, rinse cells with HBSS and aspirate.\nAdd trypsin and incubate. […]\nRead the plates after drug treatment […]\nCount each well using a Luminescence counter, Top Count NXT by Packard […]"}}, "note": "Several values for one entry are separate records, joined by “and”; a condition that tells them apart may be missing. Equal values may be shown once.", "data": [{"smiles": "CCC(CC)(c1ccc(OCC(O)(C(C)C)C(C)C)c(C)c1)c1ccc(C(=O)NCC(=O)O)c(C)c1", "note": "[Ex. 4, (4-{1-Ethyl-1-[4-(2-hydroxy-2-isopropyl-3-methyl-butoxy)-3-methyl-phenyl]-propyl}-2-methyl-benzoylamino)-acetic acid]", "values": [{"measurement": "Mouse Hypercal", "setting": "[1]", "result": 73000, "unit": "µg/kg/day"}, {"measurement": "EC50", "setting": "[2]", "result": "257 nM and 127 nM"}]}, {"smiles": "CCC(O)(CC)COc1ccc(C(CC)(CC)c2ccc(C(=O)NCC(=O)O)c(C)c2)cc1C", "note": "[Ex. 3, (4-{1-ethyl-1-[4-(2-ethyl-2-hydroxy-butoxy)-3-methyl-phenyl]-propyl}-2-methyl-benzoylamino)-acetic acid]", "values": [{"measurement": "Mouse Hypercal", "setting": "[1]", "result": 1000, "unit": "µg/kg/day"}, {"measurement": "EC50", "setting": "[2]", "result": "301 nM and 149 nM"}]}]}
